# US9169254B2, “Spiroimidazolone derivative” (Chugai Seiyaku Kabushiki Kaisha, priority 2009, dated 2015)
# Where a name gives a salt, the structure may show the parent alone.
# Molecular target: T1, human PTH1 receptor (Homo sapiens, UniProt Q03431)
# T1 sequence (Q03431 27-593): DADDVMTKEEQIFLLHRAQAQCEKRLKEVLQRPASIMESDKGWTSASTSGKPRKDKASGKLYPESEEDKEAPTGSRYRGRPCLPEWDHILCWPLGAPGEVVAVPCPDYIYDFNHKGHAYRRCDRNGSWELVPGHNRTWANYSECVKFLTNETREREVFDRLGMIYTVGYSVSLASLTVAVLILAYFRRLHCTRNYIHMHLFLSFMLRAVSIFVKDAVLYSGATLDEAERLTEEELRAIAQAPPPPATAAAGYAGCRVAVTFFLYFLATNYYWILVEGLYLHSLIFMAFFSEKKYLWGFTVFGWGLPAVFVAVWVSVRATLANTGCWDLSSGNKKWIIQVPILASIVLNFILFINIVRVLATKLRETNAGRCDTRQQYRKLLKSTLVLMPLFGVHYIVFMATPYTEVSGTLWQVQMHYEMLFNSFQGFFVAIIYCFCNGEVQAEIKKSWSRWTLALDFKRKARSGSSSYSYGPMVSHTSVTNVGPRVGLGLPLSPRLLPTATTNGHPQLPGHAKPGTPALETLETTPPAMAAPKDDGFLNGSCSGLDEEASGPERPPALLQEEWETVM
# Test: In vitro cAMP signal activity in HKRK-B7 cells (LLC-PK1 cells overexpressing the human PTH1 receptor)
# Assay type: cell-based
# Conditions: HKRK-B7 cells; compound at 1×10^−3 M; cAMP produced as percentage of that produced by hPTH(1-34) at 100 nM
row,SMILES,cAMP production activity (%)
1,"Cc1cc(C(=O)N2CCC(O)(CF)CC2)cc(C)c1/C=C/S(=O)(=O)N1CCC2(CC1)N=C(c1ccc(Cl)c(OC(C)(C)C(F)(F)F)c1)NC2=O [Compound 1271, 2-[4-chloro-3-(2,2,2-trifluoro-1,1-dimethyl-ethoxy)-phenyl]-8-{(E)-2-[4-(4-fluoromethyl-4-hydroxy-piperidine-1-carbonyl)-2,6-dimethyl-phenyl]-ethenesulfonyl}-1,3,8-triaza-spiro[4.5]dec-1-en-4-one]",92%
2,"CC(=O)N(CCN(C)C)c1cc(C)c(/C=C/S(=O)(=O)N2CCC3(CC2)N=C(c2cccc(OC(F)(F)F)c2)NC3=O)c(C)c1 [Compound 607, N-(2-dimethylamino-ethyl)-N-(3,5-dimethyl-4-{(E)-2-[4-oxo-2-(3-trifluoromethoxy-phenyl)-1,3,8-triaza-spiro[4.5]dec-1-ene-8-sulfonyl]-vinyl}-phenyl)-acetamide]",6.5%
3,"CCOCc1cc(NC(C)=O)ccc1/C=C/S(=O)(=O)N1CCC2(CC1)N=C(C1CCC(C)CC1)NC2=O (stereo not drawn) [Compound 576, N-(3-ethoxymethyl-4-{(E)-2-[2-(4-methyl-cyclohexyl)-4-oxo-1,3,8-triaza-spiro[4.5]dec-1-ene-8-sulfonyl]-vinyl}-phenyl)-acetamide]",95%
4,"CC(=O)N(C)c1ccc(C)c(CCS(=O)(=O)N2CCC3(CC2)N=C(c2cccc(OC(F)(F)F)c2)NC3=O)c1 [Compound 265, N-methyl-N-(4-methyl-3-{2-[4-oxo-2-(3-trifluoromethoxy-phenyl)-1,3,8-triaza-spiro[4.5]dec-1-ene-8-sulfonyl]-ethyl}-phenyl)-acetamide]",55%
5,"Cc1cc(N2C(=O)CNC2=O)cc(C)c1/C=C/S(=O)(=O)N1CCC2(CC1)N=C(c1cccc(OC(F)(F)F)c1)NC2=O [Compound 635, 3-(3,5-Dimethyl-4-{(E)-2-[4-oxo-2-(3-trifluoromethoxy-phenyl)-1,3,8-triaza-spiro[4.5]dec-1-ene-8-sulfonyl]-vinyl}-phenyl)-imidazolidine-2,4-dione]",93%
6,"CNCc1cc(C)c(/C=C/S(=O)(=O)N2CCC3(CC2)N=C(C2CCC(CCC(F)(F)F)CC2)NC3=O)c(C)c1 (stereo not drawn) [Compound 1292, 8-[(E)-2-(2,6-dimethyl-4-methylaminomethyl-phenyl)-ethenesulfonyl]-2-[4-(3,3,3-trifluoro-propyl)-cyclohexyl]-1,3,8-triaza-spiro[4.5]dec-1-en-4-one]",14%
7,"CCCCCCCCCC1=NC2(CCN(S(=O)(=O)CCc3ccc(C(=O)N4CC[C@@H](O)C4)cc3C)CC2)C(=O)N1 [Compound 979, 8-{2-[4-((R)-3-hydroxy-pyrrolidine-1-carbonyl)-2-methyl-phenyl]-ethanesulfonyl}-2-nonyl-1,3,8-triaza-spiro[4.5]dec-1-en-4-one]",145%
8,"CC(=O)NS(=O)(=O)c1ccc(/C=C/S(=O)(=O)N2CCC3(CC2)N=C(c2cccc(C(F)(F)F)c2)NC3=O)c(C)c1 [Compound 594, N-acetyl-3-methyl-4-{(E)-2-[4-oxo-2-(3-trifluoromethyl-phenyl)-1,3,8-triaza-spiro[4.5]dec-1-ene-8-sulfonyl]-vinyl}-benzenesulfonamide]",69%
9,"Cc1cc(N(C)C(N)=O)cc(C)c1/C=C/S(=O)(=O)N1CCC2(CC1)N=C(C1CCC(C(F)(F)F)CC1)NC2=O (stereo not drawn) [Compound 471, 1-(3,5-Dimethyl-4-{(E)-2-[4-oxo-2-(4-trifluoromethyl-cyclohexyl)-1,3,8-triaza-spiro[4.5]dec-1-ene-8-sulfonyl]-vinyl}-phenyl)-1-methyl-urea]",111%
10,"Cc1cc(C(=O)N(C)C)ccc1CCS(=O)(=O)N1CCC2(CC1)N=C(c1cccc(OC(F)(F)C(F)F)c1)NC2=O [Compound 140, 3,N,N-trimethyl-4-(2-{4-oxo-2-[3-(1,1,2,2-tetrafluoro-ethoxy)-phenyl]-1,3,8-triaza-spiro[4.5]dec-1-ene-8-sulfonyl}-ethyl)-benzamide]",77%
11,"Cc1cc(C(=O)N2CC3(COC3)C2)cc(C)c1/C=C/S(=O)(=O)N1CCC2(CC1)N=C(c1ccc(F)c(C(F)(F)F)c1)NC2=O [Compound 967, 8-{(E)-2-[2,6-Dimethyl-4-(2-oxa-6-aza-spiro[3.3]heptane-6-carbonyl)-phenyl]-ethenesulfonyl}-2-(4-fluoro-3-trifluoromethyl-phenyl)-1,3,8-triaza-spiro[4.5]dec-1-en-4-one]",44%
12,"Cc1cc(CN(C)C(=O)OC(C)(C)C)ccc1CCS(=O)(=O)N1CCC2(CC1)N=C(C1CCCCC1)NC2=O [Compound 673, {4-[2-(2-cyclohexyl-4-oxo-1,3,8-triaza-spiro[4.5]dec-1-ene-8-sulfonyl)-ethyl]-3-methyl-benzyl}-methyl-carbamic acid tert-butyl ester]",27%
13,"Cc1cc(NCC2CNC(=O)O2)ccc1CCS(=O)(=O)N1CCC2(CC1)N=C(C1CCCCC1)NC2=O (stereo not drawn) [Compound 281, 2-cyclohexyl-8-(2-{2-methyl-4-[(2-oxo-oxazolidin-5-ylmethyl)-amino]-phenyl}-ethanesulfonyl)-1,3,8-triaza-spiro[4.5]dec-1-en-4-one]",92%
14,"O=C1NC(c2cccc(OC(F)(F)F)c2)=NC12CCN(S(=O)(=O)CCc1cccc3c1ccn3C[C@H](O)CO)CC2 [Compound 746, 8-{2-[1-((S)-2,3-dihydroxy-propyl)-1H-indol-4-yl]-ethanesulfonyl}-2-(3-trifluoromethoxy-phenyl)-1,3,8-triaza-spiro[4.5]dec-1-en-4-one]",120%
15,"CC(=O)N(c1ccc(/C=C/S(=O)(=O)N2CCC3(CC2)N=C(C2CCCCC2)NC3=O)c(C)c1)C1CCCC1 [Compound 734, N-{4-[(E)-2-(2-Cyclohexyl-4-oxo-1,3,8-triaza-spiro[4.5]dec-1-ene-8-sulfonyl)-vinyl]-3-methyl-phenyl}-N-cyclopentyl-acetamide trifluoroacetate]",47%
16,"Cc1cc(OCCC(O)CO)ccc1-c1ccc(S(=O)(=O)N2CCC3(CC2)N=C(c2ccc(F)c(C(F)(F)F)c2)NC3=O)s1 (stereo not drawn) [Compound 341, 8-{5-[4-(3,4-Dihydroxy-butoxy)-2-methyl-phenyl]-thiophene-2-sulfonyl}-2-(4-fluoro-3-trifluoromethyl-phenyl)-1,3,8-triaza-spiro[4.5]dec-1-en-4-one]",62%
17,"Cc1ccc(C2=NC3(CCN(S(=O)(=O)/C=C/c4c(C)cc(C(=O)N5CCC(C)(O)CC5)cc4C)CC3)C(=O)N2)cc1C [Compound 1237, 2-(3,4-dimethyl-phenyl)-8-{(E)-2-[4-(4-hydroxy-4-methyl-piperidine-1-carbonyl)-2,6-dimethyl-phenyl]-ethenesulfonyl}-1,3,8-triaza-spiro[4.5]dec-1-en-4-one]",96%
18,"CC(=O)Nc1ccc(CCS(=O)(=O)N2CCC3(CC2)N=C(C2CCCCC2)NC3=O)c(C#N)c1 [Compound 652, N-{3-cyano-4-[2-(2-cyclohexyl-4-oxo-1,3,8-triaza-spiro[4.5]dec-1-ene-8-sulfonyl)-ethyl]-phenyl}-acetamide]",63%
19,"Cc1cc(OC[C@H](O)CO)cc(C)c1CCS(=O)(=O)N1CCC2(CC1)N=C(C1CCC(CCC(F)(F)F)CC1)NC2=O (stereo partly drawn) [Compound 821, 8-{2-[4-((R)-2,3-dihydroxy-propoxy)-2,6-dimethyl-phenyl]-ethanesulfonyl}-2-[4-(3,3,3-trifluoro-propyl)-cyclohexyl]-1,3,8-triaza-spiro[4.5]dec-1-en-4-one]",82%
20,"O=C(NCCc1ccccc1)N1CCCC(C2=NC3(CCN(S(=O)(=O)CCc4cccc5ccccc45)CC3)C(=O)N2)C1 (stereo not drawn) [Compound 455, 3-[8-(2-naphthalen-1-yl-ethanesulfonyl)-4-oxo-1,3,8-triaza-spiro[4.5]dec-1-en-2-yl]-piperidine-1-carboxylic acid phenethyl-amide]",31%
21,"Cc1cc(S(=O)(=O)NCc2cccnc2)ccc1CCS(=O)(=O)N1CCC2(CC1)N=C(c1cccc(C(F)(F)F)c1)NC2=O [Compound 852, 3-methyl-4-{2-[4-oxo-2-(3-trifluoromethyl-phenyl)-1,3,8-triaza-spiro[4.5]dec-1-ene-8-sulfonyl]-ethyl}-N-pyridin-3-ylmethyl-benzenesulfonamide]",58%
22,"Cc1cc(C(=O)N2CCC(O)CC2)cc(C)c1CCS(=O)(=O)N1CCC2(CC1)N=C(c1ccc(F)c(C(F)(F)F)c1)NC2=O [Compound 797, 2-(4-fluoro-3-trifluoromethyl-phenyl)-8-{2-[4-(4-hydroxy-piperidine-1-carbonyl)-2,6-dimethyl-phenyl]-ethanesulfonyl}-1,3,8-triaza-spiro[4.5]dec-1-en-4-one]",88%
23,"Cc1cc(C(=O)N(C)CC(N)=O)cc(C)c1/C=C/S(=O)(=O)N1CCC2(CC1)N=C(c1cccc(C(F)(F)F)c1)NC2=O [Compound 392, N-carbamoylmethyl-3,5,N-trimethyl-4-{(E)-2-[4-oxo-2-(3-trifluoromethyl-phenyl)-1,3,8-triaza-spiro[4.5]dec-1-ene-8-sulfonyl]-vinyl}-benzamide]",83%
24,"Cc1cc(C(=O)N(C)C)ccc1CCS(=O)(=O)N1CCC2(CC1)N=C(COc1ccc(Cl)cc1)NC2=O [Compound 124, 4-{2-[2-(4-chloro-phenoxymethyl)-4-oxo-1,3,8-triaza-spiro[4.5]dec-1-ene-8-sulfonyl]-ethyl}-3,N,N-trimethyl-benzamide]",64%
